Results from US12226396B2, “Gluconic acid derivatives for use in the treatment and/or prevention of microbial infections” (GEDEA BIOTECH AB, priority 2017, dated 2025).

How the values were obtained:
Candida glabrata = experiment: Biofilm formation assay (crystal violet); format: cell-based; details: for normalized biofilm (OD560) at pH 2.6: pH 2.6, 72 h treatment; for normalized biofilm (OD560) at pH 6.1: pH 6.1, 72 h treatment
Protocol: (§1) Yeast strains (Table 1) were grown at 37° C. in complete medium YPD (0.5% yeast extract, 1% peptone, 2% glucose) or minimal medium consisting of YNB (yeast nitrogen base without amino acids and ammonium sulphate, FORMEDIUM™, CYN0505) supplemented with 0.5% ammonium sulphate, 0.2% glucose and 100 mM L-proline. If needed 2% agar was used to solidify media. The liquid minimal medium (YNB (yeast nitrogen base without amino acids and ammonium sulphate, FORMEDIUM™, CYN0505) supplemented with 0.5% ammonium sulphate, 0.2% glucose and 100 mM L-proline) was used for biofilm assay (biofilm medium).
(§2) In the experiments on the impact of pH on biofilm the pH values (from 2.6 to 6.6) were obtained using either different potassium phosphate buffers at the final concentration 0.25 M, or by the addition of citric acid, lactic acid, and gluconic acid to the biofilm medium.
(§3) Biofilm was measured in liquid culture as described [K. Scherz et al., G3 (Bethesda), 2014, 4, 1671-1680. I. Serrano-Fujarte et al. Biomed Res Int. 2015; 2015:783639] with some modifications. Prior the biofilm assay, yeast cultures were grown in liquid YPD medium for 24 hours until stationary phase (OD600 11-17)^2, cells were then pelleted by centrifugation (1699 g), washed with sterile water and cells were further inoculated into test biofilm medium (YNB (yeast nitrogen base without amino acids and ammonium sulphate) supplemented with 0.5% ammonium sulphate, 0.2% glucose and 100 mM L-proline pH7.0) at final concentration 0.2 OD600/ml and incubated in 96-well flat-bottom polystyrene microtiter plates (Sigma Aldrich, Corning® Costar® culture plates, CLS3596-50EA) for 72 hours at 37° C. thermostat. At defined time points crystal violet (HT901-8FOZ; Sigma Aldrich) was added to the media at the final concentration 0.05%, in addition total biomass was measured. After 24 hours of cells staining, plate wells were washed four times with 200 μl of water to remove planktonic cells, biofilms were then dried and dissolved in 200 μl of 96% ethanol. Total biomass and crystal violet biofilm staining measurements were performed at OD560 with FLUOstar OPTIMA plate reader, BMG LABTECH. Crystal violet biofilm measurements were normalized to the total biomass (OD560Biofilm/OD560 total biomass).
Candida glabrata is much more complicated to treat, compared to Candida albicans. However, a clear effect is obtained by longer treatment, i.e. 72 h with gluconic acid (Table 4).

Escherichia coli K12 = experiment: E. coli biofilm study in M9 medium (crystal violet); format: cell-based; details: for effect on growth (biomass): M9 medium, 24-48 hours; for biofilm lowered: pH 6.6
Protocol: The bacterial strain Escherichia coli K12 was used for the biofilm study. This strain was maintained on LB medium at 37° C. The biofilm was studied in synthetic medium M9 (×1 M9 minimal salts (Sigma M6030), 2 mM MgSO4, 0.1 mM CaCl2, and 0.2% glucose), which contained either phosphate buffer, citric acid, lactic acid, gluconic acid or glucono-O-lactone to obtain media with different pH (2.6-6.6).
The overnight culture of E. coli K12 (OD600˜5.0) was washed with sterile water and inoculated to the final concentration 0.2 OD/ml of M9 medium with different pH of different compounds. The biofilm development was studied in 96-well flat-bottom polystyrene microtiter plates (Sigma Aldrich, Corning® Costar® culture plates, CLS3596-50EA). The biofilm was stained with crystal violet.

[1] = Resulting pH of biofilm medium after addition of hydroxylated carboxylic acid; format: physicochemical; details: 0.06% acid in biofilm medium, unbuffered
Protocol: (§4) To compare the effects of different hydroxylated carboxylic acids at low concentrations, the biofilm formation was measured 24 h after addition of 0.06 wt % of glyceric acid, xylonic acid, citric acid, gluconic acid, and lactic acid, under unbuffered conditions.

Candida albicans = experiment: Biofilm formation assay (crystal violet); format: cell-based; details: for normalized biofilm (% of control): 0.06 wt % acid, unbuffered, biofilm measured after 24 h; for normalized biofilm (OD560) at pH 2.6: pH 2.6, 24 h treatment; for normalized biofilm (OD560) at pH 6.1: pH 6.1, 24 h treatment
Protocol: as §1, §2, §3, §4
In order to further evaluate the effect of gluconic acid in preventing biofilm formation, the biofilm formation at different pH were determined (as described in Example 1) for gluconic acid, lactic acid and citric acid.

## O=C(O)CC(O)(CC(=O)O)C(=O)O [citric acid]
Candida glabrata
  normalized biofilm (OD560) at pH 2.6: 1.0 OD560
  normalized biofilm (OD560) at pH 6.1: 2.9 OD560
Escherichia coli K12
  effect on growth (biomass): inhibiting effect on the growth
[1]
  resulting pH: 4.6
Candida albicans
  normalized biofilm (% of control): 14 % of control
  normalized biofilm (OD560) at pH 2.6: 0.34 OD560
  normalized biofilm (OD560) at pH 6.1: 4.6 OD560

## O=C(O)[C@H](O)[C@@H](O)[C@H](O)[C@H](O)CO [gluconic acid]
Candida glabrata
  normalized biofilm (OD560) at pH 2.6: 0.07 OD560
  normalized biofilm (OD560) at pH 6.1: 1.6 OD560
Escherichia coli K12
  effect on growth (biomass): inhibiting effect on the growth
  biofilm lowered: ~2 fold
Escherichia coli K12; pH 2.6
  biofilm lower compared to the phosphate medium: 38 fold
Escherichia coli K12; pH 3.0
  biofilm lower compared to the phosphate medium: 15 fold
[1]
  resulting pH: 6.5
Candida albicans
  normalized biofilm (% of control): 6 % of control
  normalized biofilm (OD560) at pH 6.1: 0.17 OD560
Candida albicans; 0.06 wt %, 24 h, 6% vs 13% of control
  less biofilm formation on replacing lactic acid by gluconic acid: > 50%

## O=C(O)C(O)CO (centres unmarked) [glyceric acid]
[1]
  resulting pH: 7.0
Candida albicans
  normalized biofilm (% of control): 40 % of control

## CC(O)C(=O)O (centres unmarked) [lactic acid]
Candida glabrata
  normalized biofilm (OD560) at pH 2.6: 0.9 OD560
  normalized biofilm (OD560) at pH 6.1: 2.8 OD560
Escherichia coli K12
  effect on growth (biomass): inhibiting effect on the growth
  biofilm lowered: ~2 fold
[1]
  resulting pH: 4.9
Candida albicans
  normalized biofilm (% of control): 13 % of control
  normalized biofilm (OD560) at pH 2.6: 1.6 OD560
  normalized biofilm (OD560) at pH 6.1: 3.1 OD560

## O=C(O)[C@H](O)[C@@H](O)[C@H](O)CO [xylonic acid]
[1]
  resulting pH: 7.0
Candida albicans
  normalized biofilm (% of control): 31 % of control
